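Tested at 5 concentrations; 48 h exposure; 96-well plates; endpoints linearly interpolated, else capped at highest concentration. GI50: concentration for 50% inhibition of growth.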 Active and inactive are the calls of the source. No stated cut-off is given here; in the data, active = GI50 up to about 1.1 µM and inactive = higher.
Columns and labels:
Assay in all cases: DTP human tumour cell line panel, 48 h
TK-10 = test system: TK-10
U-251 = test system: U-251
SF-295 = test system: SF-295
SF-539 = test system: SF-539
CCRF-CEM = test system: CCRF-CEM
UACC-257 = test system: UACC-257
HCT-116 = test system: HCT-116
HCC 2998 = test system: HCC 2998
SN12C = test system: SN12C
UO-31 = test system: UO-31
Hs-578T = test system: Hs-578T
MDA-MB-231 = test system: MDA-MB-231
SNB-75 = test system: SNB-75
A498 = test system: A498
NCI-H460 = test system: NCI-H460
MCF7 = test system: MCF7
NCI-H522 = test system: NCI-H522
RPMI-8226 = test system: RPMI-8226
EKVX = test system: EKVX

Measured: GI50

O=C(O)CCc1ccc(-c2ccccc2)[nH]1
inactive: TK-10 > 100 µM | U-251 > 100 µM | SF-295 > 100 µM | SF-539 > 100 µM | CCRF-CEM 70.6 µM | UACC-257 > 100 µM | HCT-116 > 100 µM | HCC 2998 > 100 µM | SN12C > 100 µM | UO-31 > 100 µM | Hs-578T > 100 µM | MDA-MB-231 > 100 µM | SNB-75 > 100 µM | A498 > 100 µM | NCI-H460 > 100 µM | MCF7 > 100 µM | NCI-H522 > 100 µM | RPMI-8226 > 100 µM | EKVX > 100 µM

CC1=Nc2sc3c(c2C2=NCCN12)CCCC3
inactive: TK-10 36.8 µM | U-251 29 µM | SF-295 33.5 µM | UACC-257 20.2 µM | HCT-116 20.9 µM | HCC 2998 29.9 µM | SN12C 29.9 µM | UO-31 17.1 µM | Hs-578T 27.5 µM | MDA-MB-231 33.3 µM | SNB-75 37.2 µM | A498 39.9 µM | NCI-H460 19.7 µM | MCF7 23.7 µM | NCI-H522 19.5 µM | RPMI-8226 19.8 µM | EKVX 23.4 µM

COC(=O)c1cc2c3c(ccc2[nH]1)N(C(=O)c1cc2cc(OC)c(OC)c(OC)c2[nH]1)CC3CCl (configuration not stated)
inactive: TK-10 > 54.2 µM | U-251 6.58 µM | SF-295 7.78 µM | SF-539 > 34.8 µM | CCRF-CEM 5.98 µM | UACC-257 81.5 µM | HCT-116 4.46 µM | HCC 2998 > 100 µM | UO-31 7.59 µM | Hs-578T 8.45 µM | MDA-MB-231 > 100 µM | SNB-75 > 100 µM | A498 42.5 µM | NCI-H460 2.79 µM | MCF7 3.94 µM | NCI-H522 2.9 µM | RPMI-8226 1.69 µM | EKVX > 100 µM

COc1ccc2c(C=O)c3n(c(=O)c2c1OC)CCc1cc2c(cc1-3)OCO2
inactive: TK-10 96.8 µM | U-251 40.6 µM | SF-295 46 µM | SF-539 > 100 µM | CCRF-CEM > 100 µM | UACC-257 32.2 µM | HCT-116 26.3 µM | HCC 2998 14.2 µM | SN12C 41.3 µM | UO-31 51.8 µM | Hs-578T > 100 µM | MDA-MB-231 > 100 µM | SNB-75 18.9 µM | A498 > 100 µM | NCI-H460 53.6 µM | MCF7 21.8 µM | NCI-H522 30.4 µM | RPMI-8226 3.68 µM | EKVX 35.6 µM

N#CCN(Cc1ccccc1)[C@@H]1CCC[C@]1(O)C#Cc1ccc2c(c1)OCO2
inactive: TK-10 21.1 µM | U-251 17.9 µM | SF-295 19.8 µM | SF-539 11.7 µM | CCRF-CEM 17.6 µM | UACC-257 18.8 µM | HCC 2998 16.3 µM | UO-31 28.2 µM | Hs-578T 14.1 µM | MDA-MB-231 16.9 µM | SNB-75 31 µM | A498 20.3 µM | NCI-H460 16.1 µM | MCF7 16.9 µM | NCI-H522 16.1 µM | RPMI-8226 16 µM | EKVX 27 µM

CC(=O)Oc1c(C)cc2c(c1C)C(C)CN2C(C)=O (configuration not stated)
inactive: TK-10 > 100 µM | U-251 > 100 µM | SF-295 > 100 µM | SF-539 > 100 µM | CCRF-CEM > 100 µM | UACC-257 > 100 µM | HCT-116 > 100 µM | HCC 2998 > 100 µM | SN12C > 100 µM | UO-31 > 100 µM | Hs-578T > 100 µM | MDA-MB-231 > 100 µM | SNB-75 94.2 µM | A498 > 100 µM | NCI-H460 > 100 µM | MCF7 > 100 µM | NCI-H522 > 100 µM | RPMI-8226 > 100 µM | EKVX > 100 µM

Nc1nc(Cl)c2ncn(Cc3ccccc3CCl)c2n1
inactive: TK-10 17.7 µM | U-251 3.46 µM | SF-295 7.4 µM | SF-539 18 µM | CCRF-CEM 17.7 µM | UACC-257 13.1 µM | HCT-116 3.95 µM | HCC 2998 2.99 µM | SN12C 2.74 µM | UO-31 15.7 µM | Hs-578T 7.76 µM | MDA-MB-231 2.96 µM | SNB-75 8.13 µM | A498 20.5 µM | NCI-H460 5.66 µM | MCF7 5.97 µM | NCI-H522 2.98 µM | RPMI-8226 11.3 µM | EKVX 15.9 µM

COC(=O)c1cc(/C=C2\Cc3cc4c(cc3C2=O)CCC4)cc2c1CCC2
inactive: TK-10 > 100 µM | U-251 > 100 µM | SF-295 > 100 µM | SF-539 > 100 µM | CCRF-CEM > 100 µM | UACC-257 > 100 µM | HCT-116 63 µM | HCC 2998 > 100 µM | SN12C > 100 µM | UO-31 > 100 µM | Hs-578T > 100 µM | MDA-MB-231 > 100 µM | SNB-75 > 100 µM | A498 > 100 µM | NCI-H460 > 100 µM | MCF7 > 100 µM | NCI-H522 > 100 µM | RPMI-8226 > 100 µM | EKVX > 100 µM

From ChEMBL document CHEMBL1201862, “PubChem BioAssay data set” (2004)
